These results are taken from patent US11447466B2, “Substituted indole compounds useful as inhibitors of TLR7/8/9” (BRISTOL-MYERS SQUIBB COMPANY, priority 2017, dated 2022).

Common to all, as to format: cell-based
For assay [1], the target named is T1, human TLR7 (Homo sapiens, UniProt Q9NYK1).
T1 construct: host or cells: HEK-Blue cells
T1 sequence (Q9NYK1 27-1049): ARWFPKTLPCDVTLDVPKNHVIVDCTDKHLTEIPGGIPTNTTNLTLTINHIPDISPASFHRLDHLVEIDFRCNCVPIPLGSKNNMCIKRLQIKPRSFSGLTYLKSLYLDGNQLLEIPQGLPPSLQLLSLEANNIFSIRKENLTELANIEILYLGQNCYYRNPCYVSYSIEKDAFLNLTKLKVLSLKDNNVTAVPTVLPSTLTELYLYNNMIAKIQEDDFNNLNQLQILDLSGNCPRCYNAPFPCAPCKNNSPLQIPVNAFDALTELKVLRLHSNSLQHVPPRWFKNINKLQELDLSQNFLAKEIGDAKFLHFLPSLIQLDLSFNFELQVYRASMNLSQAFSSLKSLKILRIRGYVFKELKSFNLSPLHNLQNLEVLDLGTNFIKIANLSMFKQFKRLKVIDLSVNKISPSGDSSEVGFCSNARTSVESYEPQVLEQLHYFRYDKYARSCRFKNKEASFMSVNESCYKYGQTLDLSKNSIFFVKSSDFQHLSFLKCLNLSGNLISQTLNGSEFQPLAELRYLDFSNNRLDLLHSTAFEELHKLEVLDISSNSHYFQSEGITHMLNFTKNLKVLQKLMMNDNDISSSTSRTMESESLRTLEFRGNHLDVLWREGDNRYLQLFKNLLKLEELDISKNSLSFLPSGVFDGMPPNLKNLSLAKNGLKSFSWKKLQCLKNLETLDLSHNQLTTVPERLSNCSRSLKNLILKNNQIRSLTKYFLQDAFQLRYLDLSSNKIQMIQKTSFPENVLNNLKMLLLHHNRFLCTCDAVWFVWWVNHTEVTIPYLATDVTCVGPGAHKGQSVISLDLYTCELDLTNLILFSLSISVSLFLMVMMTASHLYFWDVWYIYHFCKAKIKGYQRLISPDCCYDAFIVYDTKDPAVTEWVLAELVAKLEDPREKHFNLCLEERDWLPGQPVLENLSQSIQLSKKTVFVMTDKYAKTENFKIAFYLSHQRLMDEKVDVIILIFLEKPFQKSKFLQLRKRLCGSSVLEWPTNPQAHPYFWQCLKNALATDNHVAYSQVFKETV
As to the kind of experiment: TLR7 inhibition reporter assay (HEK-Blue SEAP reporter, gardiquimod stimulation). As to conditions: HEK-Blue cells overexpressing human TLR7, SEAP reporter, gardiquimod 7.5 μM, 22 hour incubation. In a few lines:
(§1)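 Compound treatment: 30 min, RT, 0.05 nM–50 μM final. Agonist: TLR7 gardiquimod 7.5 μM; TLR8 R848 15.9 μM; TLR9 ODN2006 5 nM. Incubation 22 h, 37 °C, 5% CO2. Readout SEAP, HEK-Blue Detection.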
Background: A reporter such as luciferase makes a cellular process visible.

For assay [2], the target named is T2, human TLR8 (Homo sapiens, UniProt Q9NR97).
T2 construct: host or cells: HEK-Blue cells
T2 sequence (Q9NR97 27-1041): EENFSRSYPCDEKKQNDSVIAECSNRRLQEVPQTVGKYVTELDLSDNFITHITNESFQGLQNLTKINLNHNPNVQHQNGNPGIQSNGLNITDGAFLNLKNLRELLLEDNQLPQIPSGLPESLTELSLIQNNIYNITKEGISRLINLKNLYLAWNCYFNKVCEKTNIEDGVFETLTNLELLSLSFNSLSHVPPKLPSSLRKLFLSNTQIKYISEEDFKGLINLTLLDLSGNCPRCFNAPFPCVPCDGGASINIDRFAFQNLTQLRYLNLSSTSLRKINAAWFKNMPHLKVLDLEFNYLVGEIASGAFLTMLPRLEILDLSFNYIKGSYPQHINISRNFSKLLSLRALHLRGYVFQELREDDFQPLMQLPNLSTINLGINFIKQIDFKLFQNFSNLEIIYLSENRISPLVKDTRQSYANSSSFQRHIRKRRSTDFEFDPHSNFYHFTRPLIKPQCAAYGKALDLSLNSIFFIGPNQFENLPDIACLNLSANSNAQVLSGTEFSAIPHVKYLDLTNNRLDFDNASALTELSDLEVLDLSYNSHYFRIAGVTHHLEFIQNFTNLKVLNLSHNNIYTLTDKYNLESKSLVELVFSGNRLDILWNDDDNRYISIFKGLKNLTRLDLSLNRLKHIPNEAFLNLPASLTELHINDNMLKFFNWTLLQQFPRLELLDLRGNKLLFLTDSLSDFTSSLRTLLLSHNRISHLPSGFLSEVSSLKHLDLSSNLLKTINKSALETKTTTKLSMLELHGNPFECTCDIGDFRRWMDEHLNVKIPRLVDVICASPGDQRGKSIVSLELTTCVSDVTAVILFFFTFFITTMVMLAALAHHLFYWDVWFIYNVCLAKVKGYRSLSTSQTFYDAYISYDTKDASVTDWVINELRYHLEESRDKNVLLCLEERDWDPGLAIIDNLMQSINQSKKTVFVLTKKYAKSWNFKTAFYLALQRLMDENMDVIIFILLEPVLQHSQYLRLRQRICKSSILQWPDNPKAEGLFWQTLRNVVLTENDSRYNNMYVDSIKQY
As to the kind of experiment: TLR8 inhibition reporter assay (HEK-Blue SEAP reporter, R848 stimulation). As to conditions: HEK-Blue cells overexpressing human TLR8, SEAP reporter, R848 15.9 μM, 22 hour incubation. In a few lines: as §1

For assay [3], the target named is T3, human TLR9 (Homo sapiens, UniProt Q9NR96).
T3 construct: host or cells: HEK-Blue cells
T3 sequence (Q9NR96 26-1032): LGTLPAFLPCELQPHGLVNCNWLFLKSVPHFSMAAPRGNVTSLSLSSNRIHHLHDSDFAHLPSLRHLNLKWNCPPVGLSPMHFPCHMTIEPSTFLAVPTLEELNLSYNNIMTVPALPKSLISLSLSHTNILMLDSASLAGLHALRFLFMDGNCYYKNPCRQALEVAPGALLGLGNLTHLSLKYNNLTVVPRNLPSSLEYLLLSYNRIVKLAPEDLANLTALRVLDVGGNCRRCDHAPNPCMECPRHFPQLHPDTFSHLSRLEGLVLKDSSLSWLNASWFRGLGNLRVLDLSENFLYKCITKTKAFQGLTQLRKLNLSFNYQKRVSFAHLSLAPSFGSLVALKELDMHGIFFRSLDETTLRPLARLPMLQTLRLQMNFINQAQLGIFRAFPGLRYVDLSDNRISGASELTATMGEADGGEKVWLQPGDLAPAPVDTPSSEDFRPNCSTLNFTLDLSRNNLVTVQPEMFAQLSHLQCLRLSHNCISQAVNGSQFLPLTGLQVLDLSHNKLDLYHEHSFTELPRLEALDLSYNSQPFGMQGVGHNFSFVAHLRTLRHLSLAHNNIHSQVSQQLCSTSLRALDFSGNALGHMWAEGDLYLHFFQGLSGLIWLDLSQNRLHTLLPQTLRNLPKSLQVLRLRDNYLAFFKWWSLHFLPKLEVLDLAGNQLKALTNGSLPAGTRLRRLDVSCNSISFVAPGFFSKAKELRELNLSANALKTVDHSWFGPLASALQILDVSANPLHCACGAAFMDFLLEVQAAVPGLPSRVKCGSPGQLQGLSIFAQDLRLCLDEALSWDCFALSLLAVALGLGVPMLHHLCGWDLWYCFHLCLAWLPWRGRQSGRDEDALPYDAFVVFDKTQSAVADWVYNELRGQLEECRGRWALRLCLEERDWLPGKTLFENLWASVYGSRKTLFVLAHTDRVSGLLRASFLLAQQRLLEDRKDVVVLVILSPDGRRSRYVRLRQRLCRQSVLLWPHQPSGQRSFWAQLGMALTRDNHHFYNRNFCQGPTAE
As to the kind of experiment: TLR9 inhibition reporter assay (HEK-Blue SEAP reporter, ODN2006 stimulation). Conditions: HEK-Blue cells overexpressing human TLR9, SEAP reporter, ODN2006 5 nM, 22 hour incubation. In a few lines: as §1

What is called IC50 is the concentration that inhibits the measured activity by half. High values mean weaker potency in that assay, low ones greater potency in that assay. `COCCOCCOCCN1CCC(c2ccc3[nH]c(-c4cn(C)c(=O)c(Cl)c4C)c(C(C)C)c3c2)CC1` [Example 98, 3-chloro-5-(3-isopropyl-5-(1-(2-(2-(2-methoxyethoxy)ethoxy)ethyl)piperidin-4-yl)-1H-indol-2-yl)-1,4-dimethylpyridin-2(1H)-one]: the concentration for half-maximal inhibition (IC50) in assay [1] came to 20.6 nM; in assay [2], 10.4 nM; in assay [3] it was 8750 nM.
`Cc1cc(-c2[nH]c3ccc(C4CCN(C)CC4)cc3c2C(C)C)cn(C)c1=O` [Example 181, 5-(3-isopropyl-5-(1-methylpiperidin-4-yl)-1H-indol-2-yl)-1,3-dimethylpyridin-2(1H)-one]: the values for the IC50 in assay [1], in assay [2] and in assay [3] were 2 nM, 8.5 nM and 13500 nM, respectively.
Take `COCc1cc(-c2[nH]c3ccc(C4CCN(C5COC5)CC4)cc3c2C(C)C)cn(C)c1=O` [Example 346, 5-(3-isopropyl-5-(1-(oxetan-3-yl)piperidin-4-yl)-1H-indol-2-yl)-3-(methoxymethyl)-1-methylpyridin-2(1H)-one]: the figures for the 50% inhibitory concentration (IC50) in assay [1], in assay [2] and in assay [3] were 37.9 nM, 86.8 nM and 16700 nM, respectively.
For `Cc1cc(-c2[nH]c3ccc(C4CCN(CC(C)C)CC4)cc3c2C(C)C)cn(Cc2ccccc2)c1=O` [Example 113, 1-benzyl-5-(5-(1-isobutylpiperidin-4-yl)-3-isopropyl-1H-indol-2-yl)-3-methylpyridin-2(1H)-one] the same measures were 26.4 nM, 70.7 nM and 2190 nM.
With `Cc1c(-c2[nH]c3ccc(C4CCN(C5CCOCC5)CC4)cc3c2C(C)C)nn(C)c(=O)c1C` [Example 205, 6-(3-isopropyl-5-(1-(tetrahydro-2H-pyran-4-yl)piperidin-4-yl)-1H-indol-2-yl)-2,4,5-trimethylpyridazin-3(2H)-one], the IC50 in assay [1] turned out to be 501 nM; in assay [2] it was 19.8 nM; in assay [3], 8710 nM.
Regarding `Cc1nc(-c2[nH]c3ccc(C4CCN(C5CCOCC5)CC4)cc3c2C(C)C)cn(C)c1=O` [Example 185, 5-(3-isopropyl-5-(1-(tetrahydro-2H-pyran-4-yl)piperidin-4-yl)-1H-indol-2-yl)-1,3-dimethylpyrazin-2(1H)-one], the IC50 in assay [1] worked out at 61.3 nM; in assay [2] it was 19 nM; in assay [3], 4320 nM.
Consider `CNC(=O)CN1CCC(c2ccc3[nH]c(-c4cc(OC)c(=O)n(C)c4)c(C(C)C)c3c2)CC1` [Example 129, 2-(4-(3-isopropyl-2-(5-methoxy-1-methyl-6-oxo-1,6-dihydropyridin-3-yl)-1H-indol-5-yl)piperidin-1-yl)-N-methylacetamide], for which the concentration for half-maximal inhibition (IC50) in assay [1] was found to be 5 nM; in assay [2] it was 8 nM; in assay [3] it was 2930 nM.
On to `CCCN1CCC(c2ccc3[nH]c(-c4cc(-c5cnc(OC)nc5)c(=O)n(C)c4)c(C(C)C)c3c2)CC1` [Example 331, 5-(3-isopropyl-5-(1-propylpiperidin-4-yl)-1H-indol-2-yl)-3-(2-methoxypyrimidin-5-yl)-1-methylpyridin-2(1H)-one], for which the values for the IC50 in assay [1], in assay [2] and in assay [3] were 6.3 nM, 9.6 nM and 2710 nM, respectively.
Take `Cc1cc(=O)n(C)nc1-c1[nH]c2ccc(C3CCNCC3)cc2c1C(C)C` [Example 10, 6-(3-isopropyl-5-(piperidin-4-yl)-1H-indol-2-yl)-2,5-dimethylpyridazin-3(2H)-one]: the IC50 in assay [1] is 330 nM; in assay [2], 38.4 nM; in assay [3], 1540 nM.
The like results for `Cc1c(-c2[nH]c3ccc(C4CCN(C(=O)CN(C)C)CC4)cc3c2C(C)C)cn(C)c(=O)c1C` [Example 280, 5-(5-(1-(dimethylglycyl)piperidin-4-yl)-3-isopropyl-1H-indol-2-yl)-1,3,4-trimethylpyridin-2(1H)-one] were, in that order, 6.1 nM, 9 nM and 4570 nM.
Turning to `CCCN1CCC(c2ccc3[nH]c(-c4cc(-c5cncnc5)c(=O)n(CC)c4)c(C(C)C)c3c2)CC1` [Example 260, 1-ethyl-5-(3-isopropyl-5-(1-propylpiperidin-4-yl)-1H-indol-2-yl)-3-(pyrimidin-5-yl)pyridin-2(1H)-one], the IC50 turned out to be 23.2 nM in assay [1], 3.1 nM in assay [2] and 2240 nM in assay [3].
The like results for `CC(C)c1c(-c2cn(C)c(=O)cn2)[nH]c2ccc(C3CCNCC3)cc12` [Example 4, 5-(3-isopropyl-5-(piperidin-4-yl)-1H-indol-2-yl)-1-methylpyrazin-2(1H)-one] were, in that order, 82.8 nM, 38.4 nM and 756 nM.
The like results for `Cc1cc(-c2[nH]c3ccc(C4CCNCC4)cc3c2C(C)C)c(C)n(C)c1=O` [Example 3, 5-(3-isopropyl-5-(piperidin-4-yl)-1H-indol-2-yl)-1,3,6-trimethylpyridin-2(1H)-one] were, in that order, 8.4 nM, 3.4 nM and 979 nM.
